System: New Zealand rabbits with normal intraocular pressure
Assay: Reduction of intraocular pressure by repeated eye-drop administration for 14 days, experiment operation 1
Assay type: in vivo
Settings: for Change of intraocular pressure: negative control minus group
Text: Experimental example 4. Experiment on reduction of intraocular pressure and ocular toxicity of New Zealand rabbits with normal intraocular pressure by repeated eye-drop administration for 14 days
The intraocular pressure reduction action and the potential ocular toxicity of compound 63 were explored by 14 days of repeated eye-drop administration in rabbits with normal intraocular pressure.
Male New Zealand rabbits, aged 97-127 days, weighted 2.6-3.5 kg, purchased from PizhouDongfang Breeding Co. Ltd.
The male New Zealand rabbits were randomly divided into 7 groups, with 6 rabbits per group. Animals were randomly divided according to body weight Animals in 1-7 groups were eye-dropped with solvent/control sample/test sample in both eyes, the volume of the administration was all 50 μL/eye, once per day for 14 consecutive days, and the day of the administration was recorded as Day 1. On Day 1, intraocular pressure of the animals was measured before the administration and in 1, 2, 4, 6, 8 and 10 hours after the administration, respectively; on Days 2-14, intraocular pressure of the animals was measured in 1 hour after daily administration for the group administered with K-115, and intraocular pressure of the animal was measured in 4 hours after daily administration for the other groups.

[1] = 4 mg/mL once per day, Day 2, 1 hour after daily administration
[2] = 4 mg/mL once per day, Day 3, 1 hour after daily administration
[3] = 4 mg/mL once per day, Day 4, 1 hour after daily administration
[4] = 4 mg/mL once per day, Day 5, 1 hour after daily administration
[5] = 4 mg/mL once per day, Day 6, 1 hour after daily administration
[6] = 4 mg/mL once per day, Day 7, 1 hour after daily administration
[7] = 4 mg/mL once per day, Day 8, 1 hour after daily administration
[8] = 4 mg/mL once per day, Day 9, 1 hour after daily administration
[9] = 4 mg/mL once per day, Day 10, 1 hour after daily administration
[10] = 4 mg/mL once per day, Day 11, 1 hour after daily administration
[11] = 4 mg/mL once per day, Day 12, 1 hour after daily administration
[12] = 4 mg/mL once per day, Day 13, 1 hour after daily administration
[13] = 4 mg/mL once per day, Day 14, 1 hour after daily administration

SMILES: C[C@H]1CNCCCN1S(=O)(=O)c1cccc2cncc(F)c12 [Compound K-115, reference compound]
- Mean intraocular pressure of both eyes (4 mg/mL both eyes, Day 1, 1 hour after administration): 7.72 mmHg
- Mean intraocular pressure of both eyes (4 mg/mL both eyes, Day 1, 2 hours after administration): 9.00 mmHg
- Mean intraocular pressure of both eyes (4 mg/mL both eyes, Day 1, 4 hours after administration): 9.67 mmHg
- Mean intraocular pressure of both eyes (4 mg/mL both eyes, Day 1, 6 hours after administration): 10.56 mmHg
- Mean intraocular pressure of both eyes (4 mg/mL both eyes, Day 1, 8 hours after administration): 10.28 mmHg
- Mean intraocular pressure of both eyes (4 mg/mL both eyes, Day 1, 10 hours after administration): 12.81 mmHg
- Mean intraocular pressure of both eyes (4 mg/mL both eyes, Day 1, before administration): 10.83 mmHg
- Mean intraocular pressure of both eyes [1]: 6.83 mmHg
- Change of intraocular pressure [1]: 4.25 mmHg
- Mean intraocular pressure of both eyes [2]: 6.81 mmHg
- Change of intraocular pressure [2]: 3.58 mmHg
- Mean intraocular pressure of both eyes [3]: 6.92 mmHg
- Change of intraocular pressure [3]: 3.69 mmHg
- Mean intraocular pressure of both eyes [4]: 6.67 mmHg
- Change of intraocular pressure [4]: 4.3 mmHg
- Mean intraocular pressure of both eyes [5]: 6.75 mmHg
- Change of intraocular pressure [5]: 2.56 mmHg
- Mean intraocular pressure of both eyes [6]: 7.39 mmHg
- Change of intraocular pressure [6]: 2.67 mmHg
- Mean intraocular pressure of both eyes [7]: 7.53 mmHg
- Change of intraocular pressure [7]: 3.78 mmHg
- Mean intraocular pressure of both eyes [8]: 7.78 mmHg
- Change of intraocular pressure [8]: 1.66 mmHg
- Mean intraocular pressure of both eyes [9]: 7.94 mmHg
- Change of intraocular pressure [9]: 1.81 mmHg
- Mean intraocular pressure of both eyes [10]: 7.94 mmHg
- Change of intraocular pressure [10]: 1.75 mmHg
- Mean intraocular pressure of both eyes [11]: 7.89 mmHg
- Change of intraocular pressure [11]: 1.64 mmHg
- Mean intraocular pressure of both eyes [12]: 8.25 mmHg
- Change of intraocular pressure [12]: 3.14 mmHg
- Mean intraocular pressure of both eyes [13]: 8.50 mmHg
- Change of intraocular pressure [13]: 2.47 mmHg
- Change of intraocular pressure (4 mg/mL, Day 1, 1 hour after administration): 2.59 mmHg
- Change of intraocular pressure (4 mg/mL, Day 1, 2 hours after administration): 1.97 mmHg
- Change of intraocular pressure (4 mg/mL, Day 1, 4 hours after administration): 1.64 mmHg
- Change of intraocular pressure (4 mg/mL, Day 1, 6 hours after administration): 1.38 mmHg
- Change of intraocular pressure (4 mg/mL, Day 1, 8 hours after administration): 2.69 mmHg
- Change of intraocular pressure (4 mg/mL, Day 1, 10 hours after administration): 1.61 mmHg
- Change of intraocular pressure (4 mg/mL, Day 1, before administration): −0.94 mmHg

— patent publication US12459918B2, “Isoquinolinone derivatives serving as rock protein kinase inhibitors and use thereof” (GUANGZHOU OCUSUN OPHTHALMIC BIOTECHNOLOGY CO., LTD., priority 2019, dated 2025)
